Assay results as given in patent US10004701B2, “Methods and compositions for treating infection” (UNIVERSITY OF ROCHESTER, priority 2012, dated 2018).
Where a name gives a salt, the structure may show the parent alone. Read-outs that look alike come from different tables or passages of the source.

Experiments:
Assay in all cases: AK assay 384-well format, Prestwick library screening
[1] = tested on: P. aeruginosa; format: cell-based, Pseudomonas aeruginosa; conditions: Pseudomonas aeruginosa, 3 h, 50 μM final drug concentration
[2] = tested on: A. baumannii strain 98-37-09; format: cell-based, Acinetobacter baumannii; conditions: Acinetobacter baumannii, 983709, 3 h, 50 μM final drug concentration
[3] = tested on: E. faecium; format: cell-based, Enterococcus faecium; conditions: Enterococcus faecium, 3 h, 50 μM final drug concentration
[4] = tested on: E. cloacae; format: cell-based, Enterobacter cloacae; conditions: Enterobacter cloacae, 3 h, 50 μM final drug concentration
[5] = tested on: S. aureus strain USA300-0114; format: cell-based, Staphylococcus aureus; conditions: Staphylococcus aureus, USA300, 3 h, 50 μM final drug concentration
[6] = tested on: K. pneumoniae; format: cell-based, Klebsiella pneumoniae; conditions: Klebsiella pneumoniae, 3 h, 50 μM final drug concentration
[7] = tested on: E. coli; format: cell-based, Escherichia coli; conditions: Escherichia coli, 3 h, 50 μM final drug concentration
[8] = planktonic P. aeruginosa, cutoff for positive-scoring molecules 3-fold increase, read-out: AK-based Prestwick Library Screening Results, P. aeruginosa (increase in extracellular AK activity)
[9] = planktonic A. baumannii, cutoff for positive-scoring molecules 3-fold increase, read-out: AK-based Prestwick Library Screening Results, A. baumannii (increase in extracellular AK activity)
[10] = planktonic E. faecium, cutoff for positive-scoring molecules 3-fold increase, read-out: AK-based Prestwick Library Screening Results, E. faecium (increase in extracellular AK activity)
[11] = planktonic E. cloacae, cutoff for positive-scoring molecules 3-fold increase, read-out: AK-based Prestwick Library Screening Results, E. cloacae (increase in extracellular AK activity)
[12] = planktonic S. aureus, cutoff for positive-scoring molecules 3-fold increase, read-out: AK-based Prestwick Library Screening Results, S. aureus (increase in extracellular AK activity)
[13] = planktonic K. pneumoniae, cutoff for positive-scoring molecules 3-fold increase, read-out: AK-based Prestwick Library Screening Results, K. pneumoniae (increase in extracellular AK activity)
[14] = planktonic E. coli, cutoff for positive-scoring molecules 3-fold increase, read-out: AK-based Prestwick Library Screening Results, E. coli (increase in extracellular AK activity)
[15] = planktonic P. aeruginosa, 384-well, cutoff for positive-scoring molecules 3-fold increase, read-out: AK-based Prestwick Library Screening Results: P. aeruginosa (increase in extracellular AK activity)
[16] = planktonic A. baumannii, 384-well, cutoff for positive-scoring molecules 3-fold increase, read-out: AK-based Prestwick Library Screening Results: A. baumannii (increase in extracellular AK activity)
[17] = planktonic E. faecium, 384-well, cutoff for positive-scoring molecules 3-fold increase, read-out: AK-based Prestwick Library Screening Results: E. faecium (increase in extracellular AK activity)
[18] = planktonic E. cloacae, 384-well, cutoff for positive-scoring molecules 3-fold increase, read-out: AK-based Prestwick Library Screening Results: E. cloacae (increase in extracellular AK activity)
[19] = planktonic S. aureus, 384-well, cutoff for positive-scoring molecules 3-fold increase, read-out: AK-based Prestwick Library Screening Results: S. aureus (increase in extracellular AK activity)
[20] = planktonic K. pneumoniae, 384-well, cutoff for positive-scoring molecules 3-fold increase, read-out: AK-based Prestwick Library Screening Results: K. pneumoniae (increase in extracellular AK activity)
[21] = planktonic E. coli, 384-well, cutoff for positive-scoring molecules 3-fold increase, read-out: AK-based Prestwick Library Screening Results: E. coli (increase in extracellular AK activity)
[22] = cutoff for positive-scoring molecules 3-fold increase, read-out: AK-based Prestwick Library Screening Results, P. aeruginosa (fold increase in extracellular AK activity)
[23] = cutoff for positive-scoring molecules 3-fold increase, read-out: AK-based Prestwick Library Screening Results, A. baumannii (fold increase in extracellular AK activity)
[24] = cutoff for positive-scoring molecules 3-fold increase, read-out: AK-based Prestwick Library Screening Results, E. faecium (fold increase in extracellular AK activity)
[25] = cutoff for positive-scoring molecules 3-fold increase, read-out: AK-based Prestwick Library Screening Results, E. cloacae (fold increase in extracellular AK activity)
[26] = cutoff for positive-scoring molecules 3-fold increase, read-out: AK-based Prestwick Library Screening Results, S. aureus (fold increase in extracellular AK activity)
[27] = cutoff for positive-scoring molecules 3-fold increase, read-out: AK-based Prestwick Library Screening Results, K. pneumoniae (fold increase in extracellular AK activity)
[28] = cutoff for positive-scoring molecules 3-fold increase, read-out: AK-based Prestwick Library Screening Results, E. coli (fold increase in extracellular AK activity)

Compound: CNCCCN1c2ccccc2CCc2ccccc21 [Desipramine hydrochloride]
- fold induction at 50 µM [1, 8]: 0.9
- fold induction at 50 µM [2, 9]: 0.7
- fold induction at 50 µM [3, 10]: 0.8
- fold induction at 50 µM [4, 11]: 0.8
- fold induction at 50 µM [5, 12]: 0.7
- fold induction at 50 µM [6, 13]: 0.7
- fold induction at 50 µM [7, 14]: 0.9

Compound: CC(=O)OCC(=O)[C@@]1(O)[C@H](C)C[C@H]2[C@@H]3CCC4=CC(=O)C=C[C@]4(C)[C@@]3(F)[C@@H](O)C[C@@]21C [Dexamethasone acetate]
- fold induction at 50 µM [1, 15]: 1
- fold induction at 50 µM [2, 16]: 1.1
- fold induction at 50 µM [3, 17]: 1.2
- fold induction at 50 µM [4, 18]: 1.2
- fold induction at 50 µM [5, 19]: 1.2
- fold induction at 50 µM [6, 20]: 1.1
- fold induction at 50 µM [7, 21]: 1.4

Compound: CC1=NS(=O)(=O)c2cc(Cl)ccc2N1 [Diazoxide]
- fold induction at 50 µM ([1]; 384-well format, cutoff for positive-scoring molecules 3-fold increase, read-out: AK-based Prestwick Library Screening Results, P. aeruginosa (increase in extracellular AK activity)): 0.4
- fold induction at 50 µM ([2]; 384-well format, cutoff for positive-scoring molecules 3-fold increase, read-out: AK-based Prestwick Library Screening Results, A. baumannii (increase in extracellular AK activity)): 0.4
- fold induction at 50 µM ([3]; 384-well format, cutoff for positive-scoring molecules 3-fold increase, read-out: AK-based Prestwick Library Screening Results, E. faecium (increase in extracellular AK activity)): 0.9
- fold induction at 50 µM ([4]; 384-well format, cutoff for positive-scoring molecules 3-fold increase, read-out: AK-based Prestwick Library Screening Results, E. cloacae (increase in extracellular AK activity)): 0.4
- fold induction at 50 µM ([5]; 384-well format, cutoff for positive-scoring molecules 3-fold increase, read-out: AK-based Prestwick Library Screening Results, S. aureus (increase in extracellular AK activity)): 0.5
- fold induction at 50 µM ([6]; 384-well format, cutoff for positive-scoring molecules 3-fold increase, read-out: AK-based Prestwick Library Screening Results, K. pneumoniae (increase in extracellular AK activity)): 0.4
- fold induction at 50 µM ([7]; 384-well format, cutoff for positive-scoring molecules 3-fold increase, read-out: AK-based Prestwick Library Screening Results, E. coli (increase in extracellular AK activity)): 0.5

Compound: CCCCOc1cc(C(=O)NCCN(CC)CC)c2ccccc2n1 [Dibucaine]
- fold induction at 50 µM [1, 15]: 1.1
- fold induction at 50 µM [2, 16]: 1.3
- fold induction at 50 µM [3, 17]: 0.9
- fold induction at 50 µM [4, 18]: 1.7
- fold induction at 50 µM [5, 19]: 1.3
- fold induction at 50 µM [6, 20]: 1.1
- fold induction at 50 µM [7, 21]: 1.3

Compound: NS(=O)(=O)c1cc(Cl)c(Cl)c(S(N)(=O)=O)c1 [Dichlorphenamide]
- fold induction at 50 µM ([1]; planktonic, cutoff for positive-scoring molecules 3-fold increase, read-out: AK-based Prestwick Library Screening Results, P. aeruginosa (fold increase in extracellular AK activity)): 0.5
- fold induction at 50 µM ([2]; planktonic, cutoff for positive-scoring molecules 3-fold increase, read-out: AK-based Prestwick Library Screening Results, A. baumannii (fold increase in extracellular AK activity)): 0.5
- fold induction at 50 µM ([3]; planktonic, cutoff for positive-scoring molecules 3-fold increase, read-out: AK-based Prestwick Library Screening Results, E. faecium (fold increase in extracellular AK activity)): 1.1
- fold induction at 50 µM ([4]; planktonic, cutoff for positive-scoring molecules 3-fold increase, read-out: AK-based Prestwick Library Screening Results, E. cloacae (fold increase in extracellular AK activity)): 0.5
- fold induction at 50 µM ([5]; planktonic, cutoff for positive-scoring molecules 3-fold increase, read-out: AK-based Prestwick Library Screening Results, S. aureus (fold increase in extracellular AK activity)): 0.5
- fold induction at 50 µM ([6]; planktonic, cutoff for positive-scoring molecules 3-fold increase, read-out: AK-based Prestwick Library Screening Results, K. pneumoniae (fold increase in extracellular AK activity)): 0.5
- fold induction at 50 µM ([7]; planktonic, cutoff for positive-scoring molecules 3-fold increase, read-out: AK-based Prestwick Library Screening Results, E. coli (fold increase in extracellular AK activity)): 0.6

Compound: O=C(O)Cc1ccccc1Nc1c(Cl)cccc1Cl [Diclofenac sodium]
- fold induction at 50 µM [1, 8]: 0.9
- fold induction at 50 µM [2, 9]: 0.8
- fold induction at 50 µM [3, 10]: 0.9
- fold induction at 50 µM [4, 11]: 1.2
- fold induction at 50 µM [5, 12]: 0.8
- fold induction at 50 µM [6, 13]: 0.7
- fold induction at 50 µM [7, 14]: 0.9

Compound: Cc1onc(-c2c(Cl)cccc2Cl)c1C(=O)N[C@@H]1C(=O)N2[C@@H]1SC(C)(C)[C@@H]2C(=O)O [Dicloxacillin sodium salt]
- fold induction at 50 µM ([1]; planktonic, cutoff for positive 3-fold increase, read-out: AK-based Prestwick Library Screening Results, P. aeruginosa (fold increase in extracellular AK activity)): 1.4
- fold induction at 50 µM ([2]; planktonic, cutoff for positive 3-fold increase, read-out: AK-based Prestwick Library Screening Results, A. baumannii (fold increase in extracellular AK activity)): 1.5
- fold induction at 50 µM ([3]; planktonic, cutoff for positive 3-fold increase, read-out: AK-based Prestwick Library Screening Results, E. faecium (fold increase in extracellular AK activity)): 1
- fold induction at 50 µM ([4]; planktonic, cutoff for positive 3-fold increase, read-out: AK-based Prestwick Library Screening Results, E. cloacae (fold increase in extracellular AK activity)): 1.2
- fold induction at 50 µM ([5]; planktonic, cutoff for positive 3-fold increase, read-out: AK-based Prestwick Library Screening Results, S. aureus (fold increase in extracellular AK activity)): 7.1
- fold induction at 50 µM ([6]; planktonic, cutoff for positive 3-fold increase, read-out: AK-based Prestwick Library Screening Results, K. pneumoniae (fold increase in extracellular AK activity)): 0.9
- fold induction at 50 µM ([7]; planktonic, cutoff for positive 3-fold increase, read-out: AK-based Prestwick Library Screening Results, E. coli (fold increase in extracellular AK activity)): 1.2

Compound: O=c1oc2ccccc2c(O)c1Cc1c(O)c2ccccc2oc1=O [Dicumarol]
- fold induction at 50 µM [1, 22]: 1.2
- fold induction at 50 µM [2, 23]: 1.3
- fold induction at 50 µM [3, 24]: 1.3
- fold induction at 50 µM [4, 25]: 1.5
- fold induction at 50 µM [5, 26]: 1.3
- fold induction at 50 µM [6, 27]: 1.1
- fold induction at 50 µM [7, 28]: 1.1

Compound: O=c1[nH]cnc2c1ncn2[C@H]1CC[C@@H](CO)O1 [Didanosine]
- fold induction at 50 µM [1, 15]: 1
- fold induction at 50 µM [2, 16]: 1.5
- fold induction at 50 µM [3, 17]: 0.9
- fold induction at 50 µM [4, 18]: 4.2
- fold induction at 50 µM [5, 19]: 1.2
- fold induction at 50 µM [6, 20]: 0.9
- fold induction at 50 µM ([7]; planktonic E. coli, 384-well, […], read-out: AK-based Prestwick Library Screening Results: E. coli (increase in extracellular AK activity)): 4.7

Compound: C/C=C(/C(=C/C)c1ccc(O)cc1)c1ccc(O)cc1 [Dienestrol]
- fold induction at 50 µM [1, 22]: 1.1
- fold induction at 50 µM [2, 23]: 3.2
- fold induction at 50 µM [3, 24]: 1.3
- fold induction at 50 µM [4, 25]: 21.9
- fold induction at 50 µM [5, 26]: 0.4
- fold induction at 50 µM [6, 27]: 0.9
- fold induction at 50 µM [7, 28]: 1.1

Compound: CCN(CC)C(=O)N1CCN(C)CC1 [Diethylcarbamazine citrate]
- fold induction at 50 µM [1, 15]: 1.1
- fold induction at 50 µM [2, 16]: 1.1
- fold induction at 50 µM [3, 17]: 1.2
- fold induction at 50 µM [4, 18]: 1.7
- fold induction at 50 µM [5, 19]: 1.1
- fold induction at 50 µM [6, 20]: 0.9
- fold induction at 50 µM [7, 21]: 1.3
